Laboratory results reported in ChEMBL document CHEMBL3792274, “Neuroprotective oleanane triterpenes from the roots of Bupleurum chinense” (Bioorg Med Chem Lett, 2016).

Key:
[1] = system: HepG2; assay: Cytotoxicity against human HepG2 cells after 48 hrs by MTT assay; type: cell-based; conditions: HepG2, 48 h
[2] = system: SH-SY5Y; assay: Neuroprotective activity against H2O2-induced neuronal cell death in human SH-SY5Y cells assessed as cell viability at 100 uM pretreated for 12 hrs followed by H2O2 addition measured after 3 hrs by MTT assay relative to control; type: functional; conditions: read-out: Activity
[3] = system: A549; assay: Cytotoxicity against human A549 cells after 48 hrs by MTT assay; type: cell-based; conditions: A549, 48 h
[4] = system: MCF7; assay: Cytotoxicity against human MCF7 cells after 48 hrs by MTT assay; type: cell-based; conditions: MCF7, 48 h
[5] = Cytotoxicity against human Hep3B cells after 48 hrs by MTT assay; type: cell-based, Hep 3B2
[6] = system: Bcap37; assay: Cytotoxicity against human Bcap37 cells after 48 hrs by MTT assay; type: cell-based; conditions: Bcap37, 48 h
[7] = system: SH-SY5Y; assay: Neuroprotective activity against H2O2-induced neuronal cell death in human SH-SY5Y cells assessed as cell viability at 50 uM pretreated for 12 hrs followed by H2O2 addition measured after 3 hrs by MTT assay relative to control; type: functional; conditions: read-out: Activity
[8] = system: SH-SY5Y; assay: Neuroprotective activity against H2O2-induced neuronal cell death in human SH-SY5Y cells assessed as cell viability at 25 uM pretreated for 12 hrs followed by H2O2 addition measured after 3 hrs by MTT assay relative to control; type: functional; conditions: read-out: Activity

For `C[C@H]1O[C@@H](O[C@H]2CC[C@@]3(C)[C@@H](CC[C@]4(C)[C@@H]3[C@H](O)C=C3[C@@H]5CC(C)(C)CC[C@]5(CO)[C@@H](O)C[C@]34C)[C@]2(C)CO)[C@H](O)[C@@H](O)[C@H]1O`, the IC50 [1] was 19.4 µM, the viability at 100 µM [2] was 6.3% and the IC50 [3] was 58.1 µM. For the same molecule, the IC50 [4] was 29.4 µM, the IC50 [5] was 39.6 µM and the IC50 [6] was 20.2 µM. The viability at 50 µM [7] was 11.4% and the viability at 25 µM [8] was 67.6%.

`CC1(C)CC[C@]23CO[C@@]4(C=C[C@@H]5[C@@]6(C)CC[C@H](O)[C@@](C)(CO)[C@@H]6CC[C@@]5(C)[C@]4(C)C[C@@H]2O)[C@@H]3C1` showed an IC50 [1] of 75.7 µM, a viability at 100 µM [2] of 43.5% and an IC50 [3] greater than 80 µM. The IC50 [4] was greater than 80 µM, the IC50 [5] was greater than 80 µM and the IC50 [6] was greater than 80 µM. The viability at 50 µM [7] was 74.2% and the viability at 25 µM [8] was 66.7%.

`CC1(C)CC[C@]23CO[C@@]4(C=C[C@@H]5[C@@]6(C)CC[C@H](O)[C@@](C)(CO)[C@@H]6CC[C@@]5(C)[C@]4(C)C[C@H]2O)[C@@H]3C1` showed an IC50 [1] of 63.4 µM, a viability at 100 µM [2] of 62.6% and an IC50 [3] greater than 80 µM. The IC50 [4] was greater than 80 µM, the IC50 [5] was greater than 80 µM and the IC50 [6] was greater than 80 µM. The viability at 50 µM [7] was 62.4% and the viability at 25 µM [8] was 70%.

Work on `C[C@@H]1O[C@@H](O[C@H]2[C@H](O)[C@@H](O)[C@H](O[C@@H]3CC[C@]4(C)[C@H](CC[C@@]5(C)[C@H]4CC=C4[C@H]6CC(C)(C)CC[C@@]6(CO)[C@H](O)C[C@@]45C)C3(C)C)O[C@@H]2CO[C@H]2O[C@@H](CO)[C@H](O)[C@@H](O)[C@@H]2O)[C@H](O)[C@H](O)[C@H]1O` yielded an IC50 [1] greater than 80 µM, a viability at 100 µM [2] of 8.66% and an IC50 [3] greater than 80 µM. For the same molecule, the IC50 [4] was greater than 80 µM, the IC50 [5] was 37.8 µM and the IC50 [6] was greater than 80 µM. For the same molecule, the viability at 50 µM [7] was 53% and the viability at 25 µM [8] was 51.4%.

Work on `CC1(C)CC[C@]2(CO)C(=O)C[C@]3(C)C(=C2C1)C=C[C@@H]1[C@@]2(C)CC[C@H](O)[C@@](C)(CO)[C@@H]2CC[C@]13C` yielded an IC50 [1] greater than 80 µM, a viability at 100 µM [2] of 77.8% and an IC50 [3] greater than 80 µM. It also gave an IC50 [4] greater than 80 µM, an IC50 [5] greater than 80 µM and an IC50 [6] greater than 80 µM. It also gave a viability at 50 µM [7] of 80.6% and a viability at 25 µM [8] of 78.2%.

Work on `CC1(C)CC[C@@]2(CO)C(=C3C=C[C@@H]4[C@@]5(C)CC[C@H](O)[C@@](C)(CO)[C@@H]5CC[C@@]4(C)[C@]3(C)C[C@H]2O)C1` yielded an IC50 [1] greater than 80 µM, a viability at 100 µM [2] of 79.3% and an IC50 [3] greater than 80 µM. The IC50 [4] was greater than 80 µM, the IC50 [5] was greater than 80 µM and the IC50 [6] was greater than 80 µM. The viability at 50 µM [7] was 82.5% and the viability at 25 µM [8] was 83.4%.

`CC1(C)CC[C@@]2(CO)C(=C3C=C[C@@H]4[C@@]5(C)CC[C@H](O)[C@@](C)(CO)[C@@H]5CC[C@@]4(C)[C@]3(C)C[C@@H]2O)C1` gave an IC50 [1] greater than 80 µM, a viability at 100 µM [2] of 78% and an IC50 [3] greater than 80 µM. For the same molecule, the IC50 [4] was greater than 80 µM, the IC50 [5] was greater than 80 µM and the IC50 [6] was greater than 80 µM. The viability at 50 µM [7] was 79.9% and the viability at 25 µM [8] was 81.4%.

In the case of `O=c1[nH]cc(F)c(=O)[nH]1` [FLUOROURACIL], the IC50 [1] is reported as 49.7 µM, the IC50 [4] is reported as 42.8 µM and the IC50 [5] is reported as 10.5 µM. For the same molecule, the IC50 [6] was 47.1 µM.

With `CO[C@@H]1C=C2[C@@H]3CC(C)(C)CC[C@]3(CO)[C@H](O)C[C@@]2(C)[C@]2(C)CC[C@H]3[C@](C)(CO)[C@@H](O[C@@H]4O[C@H](C)[C@H](O)[C@H](O[C@@H]5O[C@H](COC(C)=O)[C@@H](O)[C@H](O)[C@H]5O)[C@H]4O)CC[C@]3(C)[C@@H]12` the viability at 100 µM [2] was 7.16%, the viability at 50 µM [7] was 7.12% and the viability at 25 µM [8] was 11.7%.
